Data published in patent US10995064B2, “Sulfamoyl-arylamides and the use thereof as medicaments for the treatment of hepatitis B” (priority 2012, dated 2021).

Columns and labels:
HBV [1] = assay: anti HBV activity, HepG2.117 inducible (Tet-off) cell line, intracellular HBV DNA by realtime PCR; type: cell-based; conditions: HepG2.117 cells, 3 days of treatment
HBV [2] = assay: anti-HBV activity, HepG2.2.15 stable transfected cell line, HBV DNA from secreted virions by realtime PCR; type: cell-based; conditions: HepG2.2.15 cells, 6 days of treatment, secreted virion HBV DNA
HepG2 cells [3] = assay: Cytotoxicity in HepG2 cells, 4 days, Resazurin assay; conditions: read-out: HepG2 4 days CC50, 4 days, Resazurin
HepG2 cells [4] = assay: Cytotoxicity in HepG2 cells using CellTiter-Blue; type: cell-based; conditions: 6 days
[5] = Cytotoxicity in HepG2 cells, 4 days, Resazurin assay; conditions: human

Structure (SMILES)	EC50 (HBV [2])	CC50 (HepG2 cells [3])	other results
COC(=O)N1CCCC(NS(=O)(=O)c2cccc(C(=O)Nc3ccc(F)c(C)c3)c2)C1 (racemic) [Compound 159]			EC50 (HBV [1]; Hepatitis B virus, 72 h): 300 nM
COC(=O)N1CCCC(NS(=O)(=O)c2cccc(C(=O)Nc3ccc(F)c(C)c3)c2)C1 (racemic) [Compound 159a]	170 nM		EC50 (HBV [1]): 860 nM
COC(=O)N1CCCC(NS(=O)(=O)c2cccc(C(=O)Nc3ccc(F)c(C)c3)c2)C1 (racemic) [Compound 159b]	160 nM		EC50 (HBV [1]): 230 nM
Cc1cc(NC(=O)c2cccc(S(=O)(=O)NC3CC(=O)N(C)C3)c2)ccc1F (racemic) [Compound 179]			EC50 (HBV [2]; Hepatitis B virus, 144 h): 210 nM; EC50 (HBV [1]; Hepatitis B virus, 72 h): 440 nM
Cc1cc(NC(=O)c2cccc(S(=O)(=O)NC3CC(=O)N(C)C3)c2)ccc1F (racemic) [Compound 179a]	380 nM	> 25000 nM	EC50 (HBV [1]): 250 nM
Cc1cc(NC(=O)c2cccc(S(=O)(=O)NC3CC(=O)N(C)C3)c2)ccc1F (racemic) [Compound 179b]	1110 nM	> 25000 nM	EC50 (HBV [1]): 1840 nM
Cc1cc(NC(=O)c2cccc(S(=O)(=O)N[C@@H]3CCC[C@H](O)C3)c2)ccc1F (single isomer, unassigned) [Compound 134b, N-(4-fluoro-3-methyl-phenyl)-3-[[(1R,3S)-3-hydroxycyclohexyl]sulfamoyl]benzamide or N-(4-fluoro-3-methyl-phenyl)-3-[[(1S,3R)-3-hydroxycyclohexyl]sulfamoyl]benzamide]			EC50 (HBV [1]): 200 nM
Cc1cc(NC(=O)c2cccc(S(=O)(=O)N[C@H]3Cc4ccccc4[C@@H]3O)c2)ccc1F (single isomer, unassigned) [Compound 141a, N-(4-fluoro-3-methyl-phenyl)-3-[[(1S,2S)-1-hydroxyindan-2-yl]-sulfamoyl]benzamide or N-(4-fluoro-3-methyl-phenyl)-3-[[(1R,2R)-1-hydroxyindan-2-yl]sulfamoyl]benzamide]	700 nM	> 25000 nM	
Cc1cc(NC(=O)c2cccc(S(=O)(=O)N[C@H]3Cc4ccccc4[C@H]3O)c2)ccc1F (single isomer, unassigned) [Compound 141b, N-(4-fluoro-3-methyl-phenyl)-3-[[(1R,2S)-1-hydroxyindan-2-yl]sulfamoyl]benzamide or N-(4-fluoro-3-methyl-phenyl)-3-[[(1S,2R)-1-hydroxyindan-2-yl]sulfamoyl]benzamide]		> 25000 nM	
Cc1cc(NC(=O)c2cccc(S(=O)(=O)N[C@@H]3CC[C@H](O)C3)c2)ccc1F (single isomer, unassigned) [Compound 145a, N-(4-fluoro-3-methyl-phenyl)-3-[[(1R,3S)-3-hydroxycyclopentyl]sulfamoyl]benzamide or N-(4-fluoro-3-methyl-phenyl)-3-[[(1S,3R)-3-hydroxycyclopentyl]sulfamoyl]benzamide]		> 25000 nM	
Cc1cc(NC(=O)c2cccc(S(=O)(=O)N[C@H]3CC[C@H](O)C3)c2)ccc1F (single isomer, unassigned) [Compound 145c, N-(4-fluoro-3-methyl-phenyl)-3-[[(1S,3S)-3-hydroxycyclopentyl]-sulfamoyl]benzamide or N-(4-fluoro-3-methyl-phenyl)-3-[[(1R,3R)-3-hydroxycyclopentyl]sulfamoyl]benzamide]		> 25000 nM	
Cc1cc(NC(=O)c2cccc(S(=O)(=O)N[C@H]3CC[C@H](O)C3)c2)ccc1F (single isomer, unassigned) [Compound 145d, N-(4-fluoro-3-methyl-phenyl)-3-[[(1S,3S)-3-hydroxycyclopentyl]-sulfamoyl]benzamide or N-(4-fluoro-3-methyl-phenyl)-3-[[(1R,3R)-3-hydroxycyclopentyl]sulfamoyl]benzamide]	400 nM		
CC1(NS(=O)(=O)c2cccc(C(=O)Nc3ccc(F)cc3)c2)COC1 [Compound 4]		> 100000 nM	EC50 (HBV [2]; Hepatitis B virus, 144 h): 960 nM; EC50 (HBV [1]; Hepatitis B virus, 72 h): 930 nM
O=C(Nc1ccccc1)c1cc(S(=O)(=O)N2CCCCC2)c(Cl)cc1Cl [Compound 20]		79600 nM	
Cc1ccccc1NC(=O)c1cccc(S(=O)(=O)NC2CCCCC2)c1 [Compound 34]			EC50 (HBV [2]; Hepatitis B virus, 144 h): 4180 nM; CC50 (HepG2 cells [4]): > 25000 nM
O=C(Nc1ccc(F)cc1)c1cc(S(=O)(=O)N2CCCCC2)cs1 [Compound 61]		35700 nM	
CC1(NS(=O)(=O)c2cccc(C(=O)Nc3ccc(F)cc3)c2)CCOCC1 [Compound 83]			CC50 at 4 days [5]: > 25000 nM
Cc1cc(NC(=O)c2cccc(S(=O)(=O)NC3CCCC(O)C3)c2)ccc1F (centres unmarked) [Compound 134]			EC50 (HBV [2]; Hepatitis B virus, 144 h): 180 nM
